Test results from article PMC11173618, “C2-Symmetrical Terphenyl Derivatives as Small Molecule Inhibitors of Programmed Cell Death 1/Programmed Death Ligand 1 Protein–Protein Interaction” (Molecules, 2024).

Key:
[1] = target: T1, human PD-L1 protein (amino acids 18-134) (Homo sapiens, UniProt Q9NZQ7); assay: 1H NMR binding assay; settings: ligand/protein 1:1, 0.2 mM PD-L1, 300 K
T1 construct: human PD-L1 protein (amino acids 18-134); made in house; host or cells: E. coli BL21 (pET-21b)
Procedure: NMR spectra were recorded in 10 mM Tris, pH 8.0 20 mM NaCl containing 10% (v/v) of D2O added to the samples to provide the lock signal. Water suppression was carried out using the WATERGATE sequence. All the spectra were recorded at 300 K using a Bruker AVANCE 600 MHz spectrometer (Bruker, Billerica, MA, USA) with the cryoplatform.
The spectra were recorded at the ligand/protein ratio of 1:1 unless stated otherwise. The samples were prepared by adding small amounts of a 50 mM ligand stock solution in DMSO to the protein solution (0.20 mL) of PD-L1 fragment at a concentration of 0.2 mM. […] Spectra were visualized using TopSpin 4.0.2.

PD-1/PD-L1 complex = target: T2, PD-1/PD-L1 complex (Homo sapiens, UniProt Q9NZQ7); assay: HTRF assay of PD-1/PD-L1 complex inhibition (cis-bio kit); format: binding; settings: 1 h, scouting mode, 5 nM PD-L1, 50 nM PD-1, read-out: HTRF [%] (percentage of dissociated PD-1/PD-L1 complex)
T2 construct: purchased cis-bio
Procedure: All synthesized molecules were tested in the homogeneous time-resolved fluorescence (HTRF) assay to assess their activity as inhibitors of the PD-1/PD-L1 complex (Table 1, Table 2 and Table 3). This evaluation was conducted in scouting modes, employing concentrations of 5 μM and 0.5 μM. Based on the obtained measurements, the IC50 values were estimated for each tested compound.
The certified cis-bio assay kit was used to perform the HTRF assay. Following the standard protocol, the measurement was carried out at a 20 µL final volume with a 5 nM concentration of PD-L1 and a 50 nM concentration of PD-1 in the final formulation. […] The plate was incubated for 1 h and then read on an HTRF-certified Tecan Spark 20M microplate reader. Output data were subjected to background subtraction on negative control (without PD-1) and normalization in correlation to the positive control (without inhibitor) and were then averaged. The resulting data points were then fitted with Hill’s equation to generate IC50 using Mathematica 12. […]

T2 sequence (Q9NZQ7 19-238 limits assumed, one chain of several): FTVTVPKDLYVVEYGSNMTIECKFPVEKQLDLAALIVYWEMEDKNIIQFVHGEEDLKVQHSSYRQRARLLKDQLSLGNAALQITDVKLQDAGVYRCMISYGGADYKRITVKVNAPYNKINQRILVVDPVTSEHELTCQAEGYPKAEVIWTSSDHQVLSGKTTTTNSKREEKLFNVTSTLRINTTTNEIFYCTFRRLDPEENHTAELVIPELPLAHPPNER
T1 sequence (Q9NZQ7 18-134): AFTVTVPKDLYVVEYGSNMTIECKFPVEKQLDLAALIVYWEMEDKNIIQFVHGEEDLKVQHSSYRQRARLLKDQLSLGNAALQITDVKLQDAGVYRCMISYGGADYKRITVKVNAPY

In the case of COc1cccc(CNCCNC(C)=O)c1OCc1cccc(-c2cccc(-c3cccc(COc4c(CNCCNC(C)=O)cccc4OC)c3)c2C)c1 [Compound 8b, N,N’-(((((((2′-methyl-[1,1′:3′,1′′-terphenyl]-3,3′′-diyl)bis(methylene))bis(oxy))bis(3-methoxy-2,1-phenylene))bis(methylene))bis(azanediyl))bis(ethane-2,1-diyl))diacetamide], the “Binding to PD-L1 by 1H NMR (broadening of PD-L1 proton signals)” value [1] is reported as “affinity of the test compounds for the PD-L1 protein is confirmed”, the inhibition at 0.5 µM (PD-1/PD-L1 complex; inhibitor 0.5 µM) is reported as 88.9 ± 3.8% and the inhibition at 5 µM (PD-1/PD-L1 complex; inhibitor 5 µM) is reported as 73.6 ± 5.3%.
